Measurements from PMC5218480 (PLoS ONE, 2017).

System: MV-4-11 cells
Assay: Gene expression microarray analysis (Affymetrix PrimeView) and GSEA
Type: cell-based, human
Design: RFU PODN (11730768_x_at) / Fold change /veh PODN (11730768_x_at) / RFU LINC00158 (11744669_a_at) / Fold change /veh LINC00158 (11744669_a_at) / RFU DUSP10 (11751237_a_at) / Fold change /veh DUSP10 (11751237_a_at) / RFU ID3 (11757404_x_at) / Fold change /veh ID3 (11757404_x_at) / RFU PLEKHG5 (11737974_s_at) / Fold change /veh PLEKHG5 (11737974_s_at) / RFU LRRC4B (11730491_at) / Fold change /veh LRRC4B (11730491_at) / RFU GIMAP4 (11747438_a_at) / Fold change /veh GIMAP4 (11747438_a_at) / RFU KRT8 (11758183_x_at) / Fold change /veh KRT8 (11758183_x_at) / RFU CNN1 (11734310_a_at) / Fold change /veh CNN1 (11734310_a_at) / RFU VPS37D (11726825_at) / Fold change /veh VPS37D (11726825_at) / RFU C10orf10 (11716522_x_at) / Fold change /veh C10orf10 (11716522_x_at) / RFU KIR2DL2 /// KIR2DL4 /// KIR2DL5A /// KIR2DL5B /// KIR2DS1 /// KIR2DS2 /// KIR2DS3 /// KIR2DS4 /// KIR3DL3 /// KIR3DL3 /// KIR3DS1 (11738374_at) / Fold change /veh KIR2DL2 /// KIR2DL4 /// KIR2DL5A /// KIR2DL5B /// KIR2DS1 /// KIR2DS2 /// KIR2DS3 /// KIR2DS4 /// KIR3DL3 /// KIR3DL3 /// KIR3DS1 (11738374_at) / RFU C1QL1 (11718748_at) / Fold change /veh C1QL1 (11718748_at) / RFU TMPRSS4 (11747572_a_at) / Fold change /veh TMPRSS4 (11747572_a_at) / RFU HAMP (11756126_x_at) / Fold change /veh HAMP (11756126_x_at) / RFU RNFT2 (11725882_a_at) / Fold change /veh RNFT2 (11725882_a_at) / RFU NR4A2 (11747474_a_at) / Fold change /veh NR4A2 (11747474_a_at) / RFU ABCC12 (11746883_a_at) / Fold change /veh ABCC12 (11746883_a_at) / RFU TMEM136 (11760407_x_at) / Fold change /veh TMEM136 (11760407_x_at) / RFU CLDN22 /// WWC2 (11732394_at) / Fold change /veh CLDN22 /// WWC2 (11732394_at) / RFU HLA-DPB1 (11760878_x_at) / Fold change /veh HLA-DPB1 (11760878_x_at) / RFU SPINT1 (11716480_a_at) / Fold change /veh SPINT1 (11716480_a_at) / RFU GAP43 (11754022_s_at) / Fold change /veh GAP43 (11754022_s_at) / RFU A4GNT (11735810_at) / Fold change /veh A4GNT (11735810_at) / RFU PRB3 (11715151_x_at) / Fold change /veh PRB3 (11715151_x_at) / RFU TUBB4B (11761932_at) / Fold change /veh TUBB4B (11761932_at) / RFU CAPN14 (11732068_a_at) / Fold change /veh CAPN14 (11732068_a_at) / RFU TMCC2 (11721928_a_at) / Fold change /veh TMCC2 (11721928_a_at) / RFU IRGQ (11745062_a_at) / Fold change /veh IRGQ (11745062_a_at) / RFU FAM174B (11720279_a_at) / Fold change /veh FAM174B (11720279_a_at) / RFU TMPRSS4 (11748680_a_at) / Fold change /veh TMPRSS4 (11748680_a_at) / RFU FAM212B (11763350_a_at) / Fold change /veh FAM212B (11763350_a_at) / RFU PLEKHG5 (11743358_a_at) / Fold change /veh PLEKHG5 (11743358_a_at) / RFU ZSCAN30 (11745921_a_at) / Fold change /veh ZSCAN30 (11745921_a_at) / RFU CMKLR1 (11741424_a_at) / Fold change /veh CMKLR1 (11741424_a_at) / RFU LOC101060620 /// MAPK8IP1 (11723275_at) / Fold change /veh LOC101060620 /// MAPK8IP1 (11723275_at) / RFU SPTSSB (11747773_x_at) / Fold change /veh SPTSSB (11747773_x_at) / RFU PRSS12 (11739890_at) / Fold change /veh PRSS12 (11739890_at) / RFU BIN1 (11741810_x_at) / Fold change /veh BIN1 (11741810_x_at) / RFU WNT11 (11732464_a_at) / Fold change /veh WNT11 (11732464_a_at) / RFU C10orf10 (11716521_a_at) / Fold change /veh C10orf10 (11716521_a_at) / RFU C5orf56 (11738089_at) / Fold change /veh C5orf56 (11738089_at) / RFU CYB561 (11721691_x_at) / Fold change /veh CYB561 (11721691_x_at) / RFU ANKRD19P (11752326_a_at) / Fold change /veh ANKRD19P (11752326_a_at) / RFU OR2T12 /// OR2T33 /// OR2T8 (11738714_s_at) / Fold change /veh OR2T12 /// OR2T33 /// OR2T8 (11738714_s_at) / RFU VCAN (11748164_a_at) / Fold change /veh VCAN (11748164_a_at) / RFU JSRP1 (11732532_at) / Fold change /veh JSRP1 (11732532_at) / RFU KRTAP10-11 (11738290_x_at) / Fold change /veh KRTAP10-11 (11738290_x_at) / RFU MYO3A (11730013_a_at) / Fold change /veh MYO3A (11730013_a_at) / RFU EBF3 (11725865_a_at) / Fold change /veh EBF3 (11725865_a_at) / RFU CAMK2N1 (11719241_x_at) / Fold change /veh CAMK2N1 (11719241_x_at) / RFU C5orf56 (11738088_a_at) / Fold change /veh C5orf56 (11738088_a_at) / RFU OLFML3 (11715873_a_at) / Fold change /veh OLFML3 (11715873_a_at) / RFU LOC100653217 /// NTM (11731650_a_at) / Fold change /veh LOC100653217 /// NTM (11731650_a_at) / RFU MAPK11 (11762145_a_at) / Fold change /veh MAPK11 (11762145_a_at) / RFU FIZ1 (11724087_x_at) / Fold change /veh FIZ1 (11724087_x_at) / RFU OASL (11726364_x_at) / Fold change /veh OASL (11726364_x_at) / RFU SOX15 (11748057_x_at) / Fold change /veh SOX15 (11748057_x_at) / RFU CD79A (11719716_a_at) / Fold change /veh CD79A (11719716_a_at) / RFU HIST1H1D (11736915_at) / Fold change /veh HIST1H1D (11736915_at) / RFU CASKIN2 (11723855_a_at) / Fold change /veh CASKIN2 (11723855_a_at) / RFU LOC730098 (11760151_x_at) / Fold change /veh LOC730098 (11760151_x_at) / RFU OR4N2 (11742367_at) / Fold change /veh OR4N2 (11742367_at) / RFU PRRT2 (11749266_a_at) / Fold change /veh PRRT2 (11749266_a_at) / RFU SNX32 (11753110_a_at) / Fold change /veh SNX32 (11753110_a_at) / RFU CDHR5 (11726645_a_at) / Fold change /veh CDHR5 (11726645_a_at) / RFU RCAN1 (11760418_a_at) / Fold change /veh RCAN1 (11760418_a_at) / RFU FAM167A (11723789_a_at) / Fold change /veh FAM167A (11723789_a_at) / RFU FAM26E (11764081_at) / Fold change /veh FAM26E (11764081_at) / RFU ISYNA1 (11749810_s_at) / Fold change /veh ISYNA1 (11749810_s_at) / RFU ACY1 (11761880_at) / Fold change /veh ACY1 (11761880_at) / RFU 11764098_at / Fold change /veh 11764098_at / RFU SAMD14 (11745864_x_at) / Fold change /veh SAMD14 (11745864_x_at) / RFU NPB (11741838_a_at) / Fold change /veh NPB (11741838_a_at) / RFU TMPRSS6 (11731388_a_at) / Fold change /veh TMPRSS6 (11731388_a_at) / RFU KRTAP10-2 (11738614_at) / Fold change /veh KRTAP10-2 (11738614_at) / RFU ARHGAP8 /// PRR5-ARHGAP8 (11727945_x_at) / Fold change /veh ARHGAP8 /// PRR5-ARHGAP8 (11727945_x_at) / RFU KRTAP5-7 /// NADSYN1 (11734609_at) / Fold change /veh KRTAP5-7 /// NADSYN1 (11734609_at) / RFU RASL12 (11751679_a_at) / Fold change /veh RASL12 (11751679_a_at) / RFU CDKN2B (11736163_a_at) / Fold change /veh CDKN2B (11736163_a_at) / RFU PRF1 (11729649_at) / Fold change /veh PRF1 (11729649_at) / RFU, ZNF638 /// ZNF638-IT1 / Fold change vs veh, ZNF638 /// ZNF638-IT1 / RFU, PANK3 / Fold change vs veh, PANK3 / RFU, SH3YL1 / Fold change vs veh, SH3YL1 / RFU, ZEB2 / Fold change vs veh, ZEB2 / RFU, NRIP1 / Fold change vs veh, NRIP1 / RFU, PTTG1IP / Fold change vs veh, PTTG1IP / RFU, CAPN2 / Fold change vs veh, CAPN2 / RFU, MED14 / Fold change vs veh, MED14 / RFU, SNORA58 / Fold change vs veh, SNORA58 / RFU, C1orf63 / Fold change vs veh, C1orf63 / RFU, LRRFIP1 / Fold change vs veh, LRRFIP1 / RFU, NDUFAF7 / Fold change vs veh, NDUFAF7 / RFU, SLC12A2 / Fold change vs veh, SLC12A2 / RFU, IBTK / Fold change vs veh, IBTK / RFU, ESF1 / Fold change vs veh, ESF1 / Fold change vs veh, TMEM50B / RFU, TAOK1 / Fold change vs veh, TAOK1 / RFU, ACBD3 / Fold change vs veh, ACBD3 / RFU, TMA16 / Fold change vs veh, TMA16 / RFU, RWDD3 / Fold change vs veh, RWDD3 / RFU, BCAT1 / Fold change vs veh, BCAT1 / RFU, EDEM3 / Fold change vs veh, EDEM3 / RFU, TMEM33 / Fold change vs veh, TMEM33 / RFU, WDR75 / Fold change vs veh, WDR75 / RFU, AHCTF1 / Fold change vs veh, AHCTF1 / RFU, TFRC / Fold change vs veh, TFRC / RFU, ZDHHC17 / Fold change vs veh, ZDHHC17 / RFU, NOM1 / Fold change vs veh, NOM1 / RFU, ARL8B / Fold change vs veh, ARL8B / RFU, ZBTB11 / Fold change vs veh, ZBTB11 / RFU, TAMM41 / Fold change vs veh, TAMM41 / RFU, KIAA1704 /// LOC100996395 / Fold change vs veh, KIAA1704 /// LOC100996395 / RFU, ING1 / Fold change vs veh, ING1 / RFU, TRMT61B / Fold change vs veh, TRMT61B / RFU, FUBP3 / Fold change vs veh, FUBP3 / RFU, TP53 / Fold change vs veh, TP53 / RFU, TNKS2 / Fold change vs veh, TNKS2 / RFU, ZFP14 / Fold change vs veh, ZFP14 / RFU, ACTR2 / Fold change vs veh, ACTR2 / RFU, PPP3R1 / Fold change vs veh, PPP3R1 / RFU, PIK3R1 / Fold change vs veh, PIK3R1 / RFU, HNRNPA1 / Fold change vs veh, HNRNPA1 / RFU, RNF170 / Fold change vs veh, RNF170 / RFU, ZNF28 / Fold change vs veh, ZNF28 / RFU, RNGTT / Fold change vs veh, RNGTT / RFU, OGT / Fold change vs veh, OGT / RFU, BRD1 / Fold change vs veh, BRD1 / RFU, MARS / Fold change vs veh, MARS / RFU, ZNF655 / Fold change vs veh, ZNF655 / RFU, FAHD1 / Fold change vs veh, FAHD1 / RFU, BDP1 / Fold change vs veh, BDP1 / RFU, LRRCC1 / Fold change vs veh, LRRCC1 / RFU, ARID1A / Fold change vs veh, ARID1A / RFU, ZNF146 / Fold change vs veh, ZNF146 / RFU, ZNF330 / Fold change vs veh, ZNF330 / RFU, GPN3 / Fold change vs veh, GPN3 / RFU, C9orf123 / Fold change vs veh, C9orf123 / RFU, N4BP2L2 / Fold change vs veh, N4BP2L2 / RFU, ARFIP1 / Fold change vs veh, ARFIP1 / RFU, FAM179B / Fold change vs veh, FAM179B / RFU, BCL10 / Fold change vs veh, BCL10 / RFU, UHRF1BP1L / Fold change vs veh, UHRF1BP1L / RFU, BET1 / Fold change vs veh, BET1 / RFU, CNOT2 / Fold change vs veh, CNOT2 / RFU, ZNF268 / Fold change vs veh, ZNF268 / Fold change vs veh, ZNF507 / RFU, DGCR2 / Fold change vs veh, DGCR2 / RFU, WDSUB1 / Fold change vs veh, WDSUB1 / Fold change vs veh, HSP90B1 /// MIR3652 / RFU, ADSS / Fold change vs veh, ADSS / RFU, GK / Fold change vs veh, GK / RFU, ZNF148 / Fold change vs veh, ZNF148 / RFU, TAF9 / Fold change vs veh, TAF9 / RFU, SLC1A5 / Fold change vs veh, SLC1A5 / RFU, SLMO2 / Fold change vs veh, SLMO2 / RFU, ABCC4 / Fold change vs veh, ABCC4 / RFU, LOC101060439 /// RAP1B / Fold change vs veh, LOC101060439 /// RAP1B / RFU, RFX7 / Fold change vs veh, RFX7 / RFU, GTPBP10 / Fold change vs veh, GTPBP10 / RFU, CNEP1R1 / Fold change vs veh, CNEP1R1 / RFU, BIVM-ERCC5 /// ERCC5 / Fold change vs veh, BIVM-ERCC5 /// ERCC5 / RFU, ILF3 / Fold change vs veh, ILF3 / RFU 11762660_at / Fold change /veh 11762660_at / RFU VCAN (11757783_s_at) / Fold change /veh VCAN (11757783_s_at) / RFU DDX43 (11728927_at) / Fold change /veh DDX43 (11728927_at) / RFU KRT8 (11758188_x_at) / Fold change /veh KRT8 (11758188_x_at) / RFU NKD1 (11759106_at) / Fold change /veh NKD1 (11759106_at) / RFU SRD5A1 (11742802_a_at) / Fold change /veh SRD5A1 (11742802_a_at) / RFU TPSAB1 /// TPSB2 (11721975_s_at) / Fold change /veh TPSAB1 /// TPSB2 (11721975_s_at) / RFU GSTM3 (11746129_a_at) / Fold change /veh GSTM3 (11746129_a_at) / RFU IL23R (11737362_x_at) / Fold change /veh IL23R (11737362_x_at) / RFU TMEM51 (11727254_a_at) / Fold change /veh TMEM51 (11727254_a_at) / RFU PIWIL2 (11732686_x_at) / Fold change /veh PIWIL2 (11732686_x_at) / RFU ORM1 (11744905_x_at) / Fold change /veh ORM1 (11744905_x_at) / RFU CCDC152 (11743942_at) / Fold change /veh CCDC152 (11743942_at) / RFU ECM1 (11717891_a_at) / Fold change /veh ECM1 (11717891_a_at) / RFU IL23R (11748794_a_at) / Fold change /veh IL23R (11748794_a_at) / RFU TNFAIP8L3 (11732012_x_at) / Fold change /veh TNFAIP8L3 (11732012_x_at) / RFU MBOAT4 (11741988_at) / Fold change /veh MBOAT4 (11741988_at) / RFU 11764193_at / Fold change /veh 11764193_at / RFU TMEM53 (11763286_at) / Fold change /veh TMEM53 (11763286_at) / RFU MAGEB2 (11727129_at) / Fold change /veh MAGEB2 (11727129_at) / RFU TMEM200A (11744735_a_at) / Fold change /veh TMEM200A (11744735_a_at) / RFU CCDC152 (11751479_a_at) / Fold change /veh CCDC152 (11751479_a_at) / RFU FAM211A (11726209_a_at) / Fold change /veh FAM211A (11726209_a_at) / RFU RGS16 (11746705_a_at) / Fold change /veh RGS16 (11746705_a_at) / RFU VCAN (11755009_s_at) / Fold change /veh VCAN (11755009_s_at) / RFU RHOB (11743442_s_at) / Fold change /veh RHOB (11743442_s_at) / RFU RGS16 (11720943_a_at) / Fold change /veh RGS16 (11720943_a_at) / RFU RGS16 (11720944_at) / Fold change /veh RGS16 (11720944_at) / RFU, VPS4B / Fold change vs veh, VPS4B / RFU, CREB1 / Fold change vs veh, CREB1 / RFU, DNAJC13 / Fold change vs veh, DNAJC13 / RFU, GNAQ / Fold change vs veh, GNAQ / RFU, CDK5R1 / Fold change vs veh, CDK5R1 / RFU, ZRANB3 / Fold change vs veh, ZRANB3 / RFU, CUL4A / Fold change vs veh, CUL4A / RFU, CCNY / Fold change vs veh, CCNY / RFU, UFL1 / Fold change vs veh, UFL1 / RFU, COG3 / Fold change vs veh, COG3 / RFU, DIAPH2 / Fold change vs veh, DIAPH2 / RFU, SKA2 / Fold change vs veh, SKA2 / RFU, AFF3 / Fold change vs veh, AFF3 / RFU, LMF1 / Fold change vs veh, LMF1 / RFU, IPO11 / Fold change vs veh, IPO11 / RFU, DFFB / Fold change vs veh, DFFB / RFU, FOXP1 / Fold change vs veh, FOXP1 / RFU, CARD8 / Fold change vs veh, CARD8 / RFU, STRN3 / Fold change vs veh, STRN3 / RFU, ADK / Fold change vs veh, ADK / RFU, RASSF2 / Fold change vs veh, RASSF2 / RFU, WIPF1 / Fold change vs veh, WIPF1 / RFU, LARP1B / Fold change vs veh, LARP1B / RFU, RASA1 / Fold change vs veh, RASA1 / RFU, RB1 / Fold change vs veh, RB1 / RFU, PPFIA1 / Fold change vs veh, PPFIA1 / RFU, MAT2A / Fold change vs veh, MAT2A / RFU, CCT5 / Fold change vs veh, CCT5 / RFU, WDR92 / Fold change vs veh, WDR92 / RFU, CUX1 / Fold change vs veh, CUX1 / RFU, TTC7A / Fold change vs veh, TTC7A / RFU, TMEM135 / Fold change vs veh, TMEM135 / RFU, DEPTOR / Fold change vs veh, DEPTOR / RFU, CPM / Fold change vs veh, CPM / RFU, DNAJB6 / Fold change vs veh, DNAJB6 / RFU, CACNA2D3 / Fold change vs veh, CACNA2D3 / RFU, DTX4 / Fold change vs veh, DTX4 / RFU, TFCP2 / Fold change vs veh, TFCP2 / RFU, GMCL1 /// GMCL1P1 / Fold change vs veh, GMCL1 /// GMCL1P1 / RFU, AEBP2 / Fold change vs veh, AEBP2 / RFU, SNHG1 /// SNORD22 /// SNORD25 /// SNORD26 /// SNORD27 /// SNORD28 /// SNORD29 /// SNORD31 / Fold change vs veh, SNHG1 /// SNORD22 /// SNORD25 /// SNORD26 /// SNORD27 /// SNORD28 /// SNORD29 /// SNORD31 / Fold change (Aza/veh), C12orf56 (ProbeSet 11735607_a_at) / Fold change (ACY-1035/veh), C12orf56 (ProbeSet 11735607_a_at) / Fold change (Aza/veh), FGFR1OP (ProbeSet 11751329_s_at) / Fold change (ACY-1035/veh), FGFR1OP (ProbeSet 11751329_s_at) / Fold change (Aza/veh), VPS36 (ProbeSet 11739960_a_at) / Fold change (ACY-1035/veh), VPS36 (ProbeSet 11739960_a_at) / RFU SYPL1 (11715823_x_at) / Fold change /veh SYPL1 (11715823_x_at) / RFU IGFBP7 (11715501_s_at) / Fold change /veh IGFBP7 (11715501_s_at) / RFU REEP3 (11722064_at) / Fold change /veh REEP3 (11722064_at) / RFU IGLL1 (11728026_x_at) / Fold change /veh IGLL1 (11728026_x_at): dose or concentration left out as unconfirmed
Conditions: ProbeSet 11725902_s_at; LIST D

For `Nc1ncn([C@@H]2O[C@H](CO)[C@@H](O)[C@H]2O)c(=O)n1` [azacitidine], the “Fold change vs veh, TMEM135” value was 0.57.
